Test results as given in PubChem BioAssay AID1259407 (Chemical Carcinogenesis Research Information System (CCRIS), 2018).
The source made the active and inactive calls. No rule for the calls is given here.

System: CCRIS mutagenicity, Ames/micronucleus/aberration tests
Test: CCRIS mutagenicity studies
[1] = Test System: AMES SALMONELLA TYPHIMURIUM, Strain/Indicator: TA98, Metabolic Activation: NONE, Method: PREINCUBATION
[2] = Test System: AMES SALMONELLA TYPHIMURIUM, Strain/Indicator: TA100, Metabolic Activation: NONE, Method: PREINCUBATION

Structure (SMILES): CCCCC(CC)COC(=O)CCCCCCCCC(=O)OCC(CC)CCCC (stereo unspecified)
- mutagenic call (Test System: AMES SALMONELLA TYPHIMURIUM, Strain/Indicator: TA98, Metabolic Activation: HAMSTER, LIVER, S-9, AROCLOR 1254 (10%), Method: PREINCUBATION): inactive; negative
- mutagenic call [1]: inactive; negative
- mutagenic call (Test System: AMES SALMONELLA TYPHIMURIUM, Strain/Indicator: TA98, Metabolic Activation: RAT, LIVER, S-9, AROCLOR 1254 (10%), Method: PREINCUBATION): inactive; negative
- mutagenic call (Test System: AMES SALMONELLA TYPHIMURIUM, Strain/Indicator: TA100, Metabolic Activation: HAMSTER, LIVER, S-9, AROCLOR 1254 (10%), Method: PREINCUBATION): inactive; negative
- mutagenic call [2]: inactive; negative
- mutagenic call (Test System: AMES SALMONELLA TYPHIMURIUM, Strain/Indicator: TA100, Metabolic Activation: RAT, LIVER, S-9, AROCLOR 1254 (10%), Method: PREINCUBATION): inactive; negative
- mutagenic call (Test System: AMES SALMONELLA TYPHIMURIUM, Strain/Indicator: TA1535, Metabolic Activation: HAMSTER, LIVER, S-9, AROCLOR 1254 (10%), Method: PREINCUBATION): inactive; negative
- mutagenic call (Test System: AMES SALMONELLA TYPHIMURIUM, Strain/Indicator: TA1535, Metabolic Activation: NONE, Method: PREINCUBATION): inactive; negative
- mutagenic call (Test System: AMES SALMONELLA TYPHIMURIUM, Strain/Indicator: TA1535, Metabolic Activation: RAT, LIVER, S-9, AROCLOR 1254 (10%), Method: PREINCUBATION): inactive; negative
- mutagenic call (Test System: AMES SALMONELLA TYPHIMURIUM, Strain/Indicator: TA1537, Metabolic Activation: HAMSTER, LIVER, S-9, AROCLOR 1254 (10%), Method: PREINCUBATION): inactive; negative
- mutagenic call (Test System: AMES SALMONELLA TYPHIMURIUM, Strain/Indicator: TA1537, Metabolic Activation: NONE, Method: PREINCUBATION): inactive; negative
- mutagenic call (Test System: AMES SALMONELLA TYPHIMURIUM, Strain/Indicator: TA1537, Metabolic Activation: RAT, LIVER, S-9, AROCLOR 1254 (10%), Method: PREINCUBATION): inactive; negative
- mutagenic call (Test System: Ames Salmonella typhimurium, Strain/Indicator: TA98, Metabolic Activation: None, Method: Preincubation): inactive; negative
- mutagenic call (Test System: Ames Salmonella typhimurium, Strain/Indicator: TA98, Metabolic Activation: Rat, Liver, S9, Phenobarbital and 5,6-benzoflavone, Method: Preincubation): inactive; negative
- mutagenic call (Test System: Ames Salmonella typhimurium, Strain/Indicator: TA100, Metabolic Activation: None, Method: Preincubation): inactive; negative
- mutagenic call (Test System: Ames Salmonella typhimurium, Strain/Indicator: TA100, Metabolic Activation: Rat, Liver, S9, Phenobarbital and 5,6-benzoflavone, Method: Preincubation): inactive; negative
- mutagenic call (Test System: Ames Salmonella typhimurium, Strain/Indicator: TA1535, Metabolic Activation: None, Method: Preincubation): inactive; negative
- mutagenic call (Test System: Ames Salmonella typhimurium, Strain/Indicator: TA1535, Metabolic Activation: Rat, Liver, S9, Phenobarbital and 5,6-benzoflavone, Method: Preincubation): inactive; negative
- mutagenic call (Test System: Ames Salmonella typhimurium, Strain/Indicator: TA1537, Metabolic Activation: None, Method: Preincubation): inactive; negative
- mutagenic call (Test System: Ames Salmonella typhimurium, Strain/Indicator: TA1537, Metabolic Activation: Rat, Liver, S9, Phenobarbital and 5,6-benzoflavone, Method: Preincubation): inactive; negative
- mutagenic call (Test System: E. coli, Strain/Indicator: WP2uvrA/pKM101, Metabolic Activation: None, Method: Preincubation): inactive; negative
- mutagenic call (Test System: E. coli, Strain/Indicator: WP2uvrA/pKM101, Metabolic Activation: Rat, Liver, S9, Phenobarbital and 5,6-benzoflavone, Method: Preincubation): inactive; negative

Structure (SMILES): Cc1ccc2c3c(cc4ccccc42)-c2ccccc2-c13
- mutagenic call (Test System: AMES SALMONELLA TYPHIMURIUM, Strain/Indicator: TA100, Metabolic Activation: RAT, LIVER, S-9, AROCLOR 1254): active; positive

Structure (SMILES): ClC1=C(Cl)C2(Cl)C3C(Cl)C(Cl)CC3C1(Cl)C2(Cl)Cl (stereo unspecified)
- mutagenic call (Test System: AMES SALMONELLA TYPHIMURIUM, Strain/Indicator: TA98, Metabolic Activation: HAMSTER, LIVER, S-9, AROCLOR 1254 (5, 10 OR 30%), Method: PREINCUBATION): inactive; negative
- mutagenic call [1]: inactive; negative
- mutagenic call (Test System: AMES SALMONELLA TYPHIMURIUM, Strain/Indicator: TA98, Metabolic Activation: RAT, LIVER, S-9, AROCLOR 1254 (5, 10 OR 30%), Method: PREINCUBATION): inactive; negative
- mutagenic call (Test System: AMES SALMONELLA TYPHIMURIUM, Strain/Indicator: TA100, Metabolic Activation: HAMSTER, LIVER, S-9, AROCLOR 1254 (30%), Method: PREINCUBATION): active; positive
- mutagenic call (Test System: AMES SALMONELLA TYPHIMURIUM, Strain/Indicator: TA100, Metabolic Activation: NONE, Method: DESICCATOR): active; positive
- mutagenic call [2]: inactive; negative
- mutagenic call (Test System: AMES SALMONELLA TYPHIMURIUM, Strain/Indicator: TA100, Metabolic Activation: RAT, LIVER, S-9, AROCLOR 1254 (30%), Method: PREINCUBATION): active; positive
- mutagenic call (Test System: CHINESE HAMSTER V-79, Strain/Indicator: V-79/OUABAIN, Metabolic Activation: NONE, Method: STANDARD PLATE): active; positive

Structure (SMILES): COc1cc(NCCCCCNC(C)C)c2ncccc2c1
- mutagenic call (Test System: AMES SALMONELLA TYPHIMURIUM, Strain/Indicator: TA97, Metabolic Activation: NONE, Method: PREINCUBATION): inactive; negative
- mutagenic call (Test System: AMES SALMONELLA TYPHIMURIUM, Strain/Indicator: TA97, Metabolic Activation: RAT, LIVER, S-9, PHENOBARBITAL AND BETA-NAPHTHOFLAVONE, Method: PREINCUBATION): active; positive
- mutagenic call [1]: inactive; negative
- mutagenic call (Test System: AMES SALMONELLA TYPHIMURIUM, Strain/Indicator: TA98, Metabolic Activation: RAT, LIVER, S-9, PHENOBARBITAL AND BETA-NAPHTHOFLAVONE, Method: PREINCUBATION): inactive; negative
- mutagenic call [2]: inactive; negative
- mutagenic call (Test System: AMES SALMONELLA TYPHIMURIUM, Strain/Indicator: TA100, Metabolic Activation: RAT, LIVER, S-9, PHENOBARBITAL AND BETA-NAPHTHOFLAVONE, Method: PREINCUBATION): inactive; negative
- mutagenic call (Test System: AMES SALMONELLA TYPHIMURIUM, Strain/Indicator: TA102, Metabolic Activation: NONE, Method: PREINCUBATION): inactive; negative
- mutagenic call (Test System: AMES SALMONELLA TYPHIMURIUM, Strain/Indicator: TA102, Metabolic Activation: RAT, LIVER, S-9, PHENOBARBITAL AND BETA-NAPHTHOFLAVONE, Method: PREINCUBATION): inactive; negative
- mutagenic call (Test System: E.COLI, Strain/Indicator: WP2UVRA/PKM101, Metabolic Activation: NONE, Method: PREINCUBATION): inactive; negative
- mutagenic call (Test System: E.COLI, Strain/Indicator: WP2UVRA/PKM101, Metabolic Activation: RAT LIVER S-9, PHENOBARBITAL AND 5,6-BENZOFLAVONE, Method: PREINCUBATION): inactive; negative
